The source of these data is US9969698B2, “Quinoxalinyl-piperazinamide methods of use” (REXAHN PHARMACEUTICALS, INC., priority 2015, dated 2018).

Experiment [1] relates to human colorectal tumor xenografts (Colo205). Kind of experiment: Colorectal cancer xenograft model. In kind it is in vivo, mice. Conditions: oral. An excerpt: The efficacy of RX-5902 in human cancer xenograft mouse models is examined. Female nude mice (nu/nu, Harlan or CRL: NU(NCr)-Foxn1^nu, Charles River), 9-10 weeks old, with a body weight (BW) range of 15-30 g on day 1 of the study, are fed ad libitum water (reverse osmosis, 1 ppm C1), and NIH 31 Modified and Irradiated Lab Diet® consisting of 18.0% crude protein, 5.0% crude fat, and 5.0% crude fiber. The mice are housed on irradiated Enrich-o'Cobs™ Laboratory Animal Bedding in static microisolators on a 12-hour light cycle at 20-22° C. (68-72° F.) and 40-60% humidity. The study complies with the recommendations of the Guide for, Care and Use of Laboratory Animals with respect to restraint, husbandry, surgical procedures, feed and fluid regulation, and veterinary care.
Various human tumor cell lines (e.g., HCT116, HT29, H460, H69, Caki-1, CaSki, MiaPaca2, BxPC3 and Colo 205 cells [ATCC, Manassas, Va., USA]) are cultured according to ATCC's instruction. […]
The cells are harvested during exponential growth and re-suspended with phosphate buffered saline. Each test animal receives a subcutaneous (s.c.) injection of 5×10^6 tumor cells into the right flank and tumor growth is monitored as the average tumor size approaches the target range of 80-300 mm^3. […] Tumors and body weights are measured regularly until the study is terminated.
Tumors are measured in two dimensions using calipers, and volume is calculated using the formula: […]
Treatment efficacy is determined using data from Day 15. The MTV (n), the median tumor volume for the number of animals, n, on Day 15, is determined for each group. Percent tumor growth inhibition (% TGI) is defined as the difference between the MTV of the designated control group (vehicle administration) and the MTV of the drug-treated group, expressed as a percentage of the MTV of the control group: % TGI=[1−(MTVdrug treated/MTVcontrol)]×100 The data set for TGI analysis includes all animals in a group, except those that die due to treatment-related (TR) or non-treatment-related (NTR) causes. […]
Animals are monitored individually for tumor growth until Day 71. […]

For another experiment, the system named is MC38 murine colon cancer. Kind of experiment: Syngeneic MC38 murine colon cancer model. In kind it is in vivo. The method, then:
Following the methods described below, the effect of RX-5902 on tumor growth in a syngeneic model using female C57BL/6 mice with MC38 murine colon cancer was examined. Tumor growth was measured in a treatment group compared to a control (vehicle treated) group (see Table 5 below for dosing schema and treatment regimen).
The present study consisted of five groups (n=10 per group) of female C57BL/6 mice bearing subcutaneous MC38 tumors (mean tumor volume range: 66-68 mm3) on Day (D1) of the study, when dosing began. Vehicle was administered orally (p.o.). RX-5902 was administered p.o. at 84.34 mg/kg (70 mg/kg active dose). Anti-PD-1 (RMP1-14) was administered at 100 μg/animal, intraperitoneally (i.p.). Group 1 mice served as controls and received PBS (vehicle) five days on, two days off for three cycles ((5/2)×3). Group 2 received RX-5902 (5/2)×3. Group 3 received anti-PD-1 twice weekly for two weeks (biwk×2). Group 4 received RX-5902 (5/2)×3 and anti-PD-1 biwk×2. The study endpoint was a tumor volume of 1500 mm^3 or 45 days, whichever came first. Tumor measurements were taken twice weekly until Day 45 with individual animals exiting the study upon reaching the tumor volume endpoint.
Partial treatment outcome was based on percent tumor growth inhibition (% TGI), defined as the percent difference between Day 28, chosen for the TGI analysis, median tumor volumes (MTVs) of treated and control mice. The results were analyzed and were deemed statistically significant at P≤0.05. A treatment that produced at least 60% TGI was considered to have potential therapeutic activity. Additionally, efficacy was determined from tumor growth delay (TGD), a measure of the increase in the median time to endpoint (TTE) in a treatment, compared to the control group. Response was additionally evaluated based on the number of study survivors, partial regression (PR) and complete regression (CR) responses, and logrank significance of differences in survival. Tolerability of the various treatments was assessed by body weight (BW) measurements and frequent observation for clinical symptoms and treatment-related (TR) side effects.

SMILES strings stand for the structures. Marks after values point to notes of the source that are not given here.

As to `COc1cc(OC)cc(N2CCN(C(=O)Nc3nc4cc(F)ccc4nc3OC)CC2)c1` [RX-5902, 4-(3,5-dimethoxyphenyl)-N-(7-fluoro-3-methoxyquinoxalin-2-yl)piperazine-1-carboxamide], the TGI % in experiment [1] (160 mg/kg QWK) amounted to 0%*; in experiment [1] (320 mg/kg QWK), 13%*; in experiment [1] (600 mg/kg QWK), 33%*. In the experiment with MC38 murine colon cancer (45-day study, maximum possible 52%, RX-5902 84.34 mg/kg po (5/2)x3, anti-PD-1 100 μg/animal ip biwk x2), this molecule displayed a TGD of 51%. Further, the “median TTE” value in the experiment with MC38 murine colon cancer (45-day study, RX-5902 84.34 mg/kg po (5/2)x3, anti-PD-1 100 μg/animal ip biwk x2) is on record as 44.8 days. The “% TGI” value in the experiment on MC38 murine colon cancer (Day 28, RX-5902 84.34 mg/kg po (5/2)x3, anti-PD-1 100 μg/animal ip biwk x2) worked out at 90%. The “MTV on D45” value in the experiment with MC38 murine colon cancer (median tumor volume of survivors) was determined as 14 mm^3. The “partial regressions (PR)” value in the experiment on MC38 murine colon cancer (n=10 per group) is “three”. The “survivors on D45” value in the experiment on MC38 murine colon cancer (n=10 per group) was “Five”.
